Calls of active or inactive are those of the source. The calls are words filed in the database; no cut-off is given here.

For experiment [1], the system named is MCF-10A. Briefly: Inhibition of MPC in human MCF-10A cells assessed as lactate concentration at 10 uM measured for 36 hrs. The experiment is classed as cell-based.
The test system of experiment [2] is MCF-10A. As to the kind of experiment: Inhibition of MPC in human MCF-10A cells assessed as cellular lactate production measured per 10^6 cells at 10 uM measured for 36 hrs. The format is cell-based.
For experiment [3], the species on record is Mus musculus. Briefly: Induction of hair growth in C57BL/6J mouse assessed as increase in pigmentation measured after 10 days. The format is functional, organism-based. Particulars: time 10.0 day.
The species named for experiment [4] is Mus musculus. As to the kind of experiment: Induction of hair growth in C57BL/6J mouse assessed as appearance of hair growth patches measured on day 17. The experiment is classed as functional, organism-based. The settings on record: time 17.0 day.
In experiment [5] the test system is MCF-10A. As to the kind of experiment: Inhibition of MPC in human MCF-10A cells assessed as cellular lactate production measured per 10^6 cells measured for 36 hrs. The format is cell-based. The settings on record: dose 10.0 µM.

With `CCOC(=O)/C(C#N)=C/c1cn(-c2ccccn2)c2ccccc12`, the results for the Activity in the experiment on MCF-10A [1] and in the experiment with MCF-10A [2] were 0.625 µmol/mL and 0.148 µmol, respectively.

`CCOC(=O)/C(C#N)=C/c1cn(-c2cn(C)cn2)c2ccccc12`: the Activity came to 0.64 µmol/mL in the experiment on MCF-10A [1] and 0.152 µmol in the experiment with MCF-10A [2].

`CCOC(=O)/C(C#N)=C/c1cn(-c2ccc3ccccc3c2)c2ccccc12`: the Activity was found to be 0.438 µmol/mL in the experiment on MCF-10A [1] and 0.104 µmol in the experiment on MCF-10A [2].

For `CCOC(=O)/C(C#N)=C/c1cn(-c2ncccn2)c2ccccc12`, the Activity with MCF-10A [1] turned out to be 0.342 µmol/mL; with MCF-10A [2], 0.081 µmol.

Consider `CCOC(=O)/C(C#N)=C/c1cn(-c2ccncc2)c2ccccc12`, for which the Activity came out at 0.025 µmol/mL in the experiment with MCF-10A [1] and 0.006 µmol in the experiment on MCF-10A [2].

With `N#C/C(=C\c1cn(-c2ncccn2)c2ccccc12)C(=O)O`, the Activity was 0.421 µmol/mL in the experiment on MCF-10A [1] and 0.1 µmol in the experiment with MCF-10A [2].

On to `N#C/C(=C\c1cn(Cc2ccc3ccccc3c2)c2ccccc12)C(=O)O`, for which the Activity with MCF-10A [1] came to 1.23 µmol/mL; with MCF-10A [2], 0.292 µmol.

Consider `N#C/C(=C\c1cn(Cc2ccccn2)c2ccccc12)C(=O)O`, for which the Activity in the experiment on MCF-10A [1] is 1.35 µmol/mL; in the experiment on MCF-10A [2] it was 0.322 µmol; in the experiment filed under Mus musculus [3] it was “Active; Drug Entered To Anagen Phase”. Further, the result in the experiment listed under Mus musculus [4] was Active.

On to `CCOC(=O)/C(C#N)=C/c1cn(Cc2ccncc2)c2ccccc12`, for which the Activity is -0.02 µmol/mL with MCF-10A [1] and -0.005 µmol with MCF-10A [2].

For `CCOC(=O)/C(C#N)=C/c1cn(Cc2cccnc2)c2ccccc12`, the results for the Activity in the experiment on MCF-10A [1] and in the experiment on MCF-10A [2] were 0.874 µmol/mL and 0.208 µmol, respectively.

`N#C/C(=C\c1cn(-c2ccccn2)c2ccccc12)C(=O)O`: the Activity with MCF-10A [1] was found to be 0.489 µmol/mL; with MCF-10A [2] it was 0.116 µmol.

Consider `N#C/C(=C\c1cn(-c2ccncc2)c2ccccc12)C(=O)O`, for which the Activity in the experiment with MCF-10A [1] is 0.059 µmol/mL; in the experiment with MCF-10A [2], 0.014 µmol.

With `CCOC(=O)/C(C#N)=C/c1cn(Cc2ccccn2)c2ccccc12`, the figures for the Activity in the experiment with MCF-10A [1] and in the experiment on MCF-10A [2] were -0.128 µmol/mL and -0.03 µmol, respectively.

In the case of `N#C/C(=C\c1cn(-c2cncnc2)c2ccccc12)C(=O)O`, the Activity turned out to be 0.546 µmol/mL with MCF-10A [1] and 0.13 µmol with MCF-10A [2].

`CCOC(=O)/C(C#N)=C/c1cn(Cc2ccc3ccccc3c2)c2ccccc12`: the Activity in the experiment on MCF-10A [1] stood at 0.268 µmol/mL; in the experiment on MCF-10A [2], 0.064 µmol.

Turning to `N#C/C(=C\c1cn(Cc2cccnc2)c2ccccc12)C(=O)O`, the Activity was 0.393 µmol/mL with MCF-10A [1] and 0.093 µmol in the experiment with MCF-10A [2].

For `CCOC(=O)/C(C#N)=C/c1cn(-c2cccnc2)c2ccccc12`, the Activity was 0.138 µmol/mL with MCF-10A [1] and 0.033 µmol in the experiment with MCF-10A [2].

Take `CCOC(=O)/C(C#N)=C/c1cn(-c2cncnc2)c2ccccc12`: the Activity in the experiment on MCF-10A [1] came to 0.025 µmol/mL; in the experiment with MCF-10A [2], 0.006 µmol.

Turning to `Cn1cnc(-n2cc(/C=C(\C#N)C(=O)O)c3ccccc32)c1`, the Activity with MCF-10A [1] is -0.003 µmol/mL; with MCF-10A [2], -0.001 µmol.

On to `N#C/C(=C\c1cn(-c2cccnc2)c2ccccc12)C(=O)O`, for which the Activity is 0.251 µmol/mL with MCF-10A [1] and 0.06 µmol with MCF-10A [2].

Take `N#C/C(=C\c1cn(-c2ccc3ccccc3c2)c2ccccc12)C(=O)O`: the Activity in the experiment on MCF-10A [1] was found to be 0.517 µmol/mL; in the experiment with MCF-10A [2] it was 0.123 µmol.

With `N#C/C(=C\c1cn(Cc2ccncc2)c2ccccc12)C(=O)O`, the Activity in the experiment on MCF-10A [1] was -0.337 µmol/mL; in the experiment on MCF-10A [2], -0.08 µmol.

As to `N#C/C(=C\c1cn(-c2ccccc2)c2ccccc12)C(=O)O`, the Activity in the experiment on MCF-10A [1] was 0.778 µmol/mL; with MCF-10A [2] it was 0.185 µmol; with MCF-10A [5] it was “Dose-dependent-effect”. In the experiment listed under Mus musculus [4], the result was Active.

For the origin of these results see ChEMBL document CHEMBL6092124, “Design, synthesis and biological evaluation of novel cyano-cinnamate derivatives as mitochondrial pyruvate carrier inhibitors” (Bioorg Med Chem Lett, 2024).
